Experimental data reported in the supplement of paper PMC6580486.

How the values were obtained:
PCB490-3 = test system: PCB490-3 (human epithelioid sarcoma primary culture)
Procedure: (§1)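 Roche open-access kinase inhibitor screen (223 compounds) on human epithelioid sarcoma primary cultures from three spatially distinct regions of tumor PCB490. 384-well plates, 72 h, CellTiter-Glo viability; IC50 by Hill curve fit. 100000 nM = no IC50 reached. Compound ids carry a plate-well prefix, which is stripped.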

PCB490-4 = test system: PCB490-4 (human epithelioid sarcoma primary culture)
Procedure: as §1

PCB490-5 = test system: PCB490-5 (human epithelioid sarcoma primary culture)
Procedure: as §1

Compound: COc1cc(F)c(F)cc1C(=O)c1cnc(NC2CCN(S(C)(=O)=O)CC2)nc1N
- IC50 cell viability (PCB490-3): > 100 µM
- IC50 cell viability (PCB490-4): > 100 µM
- IC50 cell viability (PCB490-5): > 100 µM

Compound: Nc1c(C(=O)c2cccc(C#CCN3CCCCC3)c2)cnn1-c1ccc(F)cc1
- IC50 cell viability (PCB490-3): > 100 µM
- IC50 cell viability (PCB490-4): > 100 µM
- IC50 cell viability (PCB490-5): > 100 µM

Compound: O=C1NC(=NCCc2ccc(Br)cc2)S/C1=C\c1ccc2ncccc2c1
- IC50 cell viability (PCB490-3): > 100 µM
- IC50 cell viability (PCB490-4): > 100 µM
- IC50 cell viability (PCB490-5): > 100 µM

Compound: Cn1cc(C2=C(c3cn(CCN)c4ccccc34)C(=O)NC2=O)c2ccccc21
- IC50 cell viability (PCB490-3): > 100 µM
- IC50 cell viability (PCB490-4): > 100 µM
- IC50 cell viability (PCB490-5): > 100 µM

Compound: COc1cccc(F)c1C(=O)c1cnc(NC2CCN(S(C)(=O)=O)CC2)nc1N
- IC50 cell viability (PCB490-3): > 100 µM
- IC50 cell viability (PCB490-4): > 100 µM
- IC50 cell viability (PCB490-5): > 100 µM

Compound: COc1cccc(C2=C(c3c(C)n(C)c4ccccc34)C(=O)NC2=O)c1
- IC50 cell viability (PCB490-3): > 100 µM
- IC50 cell viability (PCB490-4): > 100 µM
- IC50 cell viability (PCB490-5): > 100 µM

Compound: O=C1NC(=NCc2cccs2)O/C1=C\c1ccc2ncccc2c1
- IC50 cell viability (PCB490-3): > 100 µM
- IC50 cell viability (PCB490-4): > 100 µM
- IC50 cell viability (PCB490-5): > 100 µM

Compound: Cn1cc(C2=C(c3cn(C)c4ccc(N)cc34)C(=O)NC2=O)c2ccccc21
- IC50 cell viability (PCB490-3): > 100 µM
- IC50 cell viability (PCB490-4): > 100 µM
- IC50 cell viability (PCB490-5): > 100 µM

Compound: CC(=O)Nc1ccc2c(c1)C(c1ccccc1Cl)=Nc1c(n[nH]c1C)N2
- IC50 cell viability (PCB490-3): 4.63 µM
- IC50 cell viability (PCB490-4): 1.72 µM
- IC50 cell viability (PCB490-5): 1.55 µM

Compound: Cn1cc(C2=C(c3cn(C)c4cc(C(N)=O)ccc34)C(=O)NC2=O)c2ccccc21
- IC50 cell viability (PCB490-3): > 100 µM
- IC50 cell viability (PCB490-4): > 100 µM
- IC50 cell viability (PCB490-5): > 100 µM

Compound: COc1cc[nH]c1/C=C1\C(=O)Nc2ccc([N+](=O)[O-])c(N3CC[C@@H](O)C3)c21
- IC50 cell viability (PCB490-3): 4.87 µM
- IC50 cell viability (PCB490-4): 7.83 µM
- IC50 cell viability (PCB490-5): 4.71 µM

Compound: NC1=NC(=O)/C(=C/c2ccc3ncccc3c2)S1
- IC50 cell viability (PCB490-3): > 100 µM
- IC50 cell viability (PCB490-4): > 100 µM
- IC50 cell viability (PCB490-5): > 100 µM

Compound: Cn1cc(C2=C(c3ccccc3[N+](=O)[O-])C(=O)NC2=O)c2ccccc21
- IC50 cell viability (PCB490-3): > 100 µM
- IC50 cell viability (PCB490-4): > 100 µM
- IC50 cell viability (PCB490-5): > 100 µM

Compound: Cn1cc(C2=C(c3cn(CCCN)c4ccccc34)C(=O)NC2=O)c2ccccc21
- IC50 cell viability (PCB490-3): > 100 µM
- IC50 cell viability (PCB490-4): > 100 µM
- IC50 cell viability (PCB490-5): > 100 µM

Compound: Cn1cc(C2=C(c3cn(C)c4cc(N)ccc34)C(=O)NC2=O)c2ccccc21
- IC50 cell viability (PCB490-3): > 100 µM
- IC50 cell viability (PCB490-4): > 100 µM
- IC50 cell viability (PCB490-5): > 100 µM

Compound: COc1ccc(O)c(C(=O)c2ccc(C(=O)N[C@@H]3CCCNC[C@H]3NC(=O)c3ccncc3)cc2)c1F
- IC50 cell viability (PCB490-3): > 100 µM
- IC50 cell viability (PCB490-4): > 100 µM
- IC50 cell viability (PCB490-5): > 100 µM

Compound: CC(=O)N[C@@H](Cc1ccc(OP(=O)(O)O)cc1)C(=O)N[C@H]1CCC(=O)N2CCC[C@@H](C(=O)NCc3ccccc3)N2C1=O
- IC50 cell viability (PCB490-3): > 100 µM
- IC50 cell viability (PCB490-4): > 100 µM
- IC50 cell viability (PCB490-5): > 100 µM

Compound: COc1ccccc1CN=C1NC(=O)/C(=C/c2ccc3ncccc3c2)S1
- IC50 cell viability (PCB490-3): > 100 µM
- IC50 cell viability (PCB490-4): > 100 µM
- IC50 cell viability (PCB490-5): > 100 µM

Compound: Cn1cc(C2=C(c3cccc4ccccc34)C(=O)NC2=O)c2ccccc21
- IC50 cell viability (PCB490-3): > 100 µM
- IC50 cell viability (PCB490-4): > 100 µM
- IC50 cell viability (PCB490-5): > 100 µM

Compound: O=C1NC(=N[C@@H](CO)Cc2ccccc2)S/C1=C\c1ccc2ncccc2c1
- IC50 cell viability (PCB490-3): > 100 µM
- IC50 cell viability (PCB490-4): > 100 µM
- IC50 cell viability (PCB490-5): > 100 µM

Compound: O=C1NC(=NCc2ccccc2)S/C1=C\c1ccc2ncccc2c1
- IC50 cell viability (PCB490-3): > 100 µM
- IC50 cell viability (PCB490-4): > 100 µM
- IC50 cell viability (PCB490-5): > 100 µM

Compound: Cc1ccc(C)c(C2=C(c3cn(C)c4ccccc34)C(=O)NC2=O)c1
- IC50 cell viability (PCB490-3): > 100 µM
- IC50 cell viability (PCB490-4): > 100 µM
- IC50 cell viability (PCB490-5): > 100 µM

Compound: CCn1c(=O)c(Oc2ccc(F)cc2F)cc2cnc(NC3CCOCC3)nc21
- IC50 cell viability (PCB490-3): > 100 µM
- IC50 cell viability (PCB490-4): > 100 µM
- IC50 cell viability (PCB490-5): > 100 µM

Compound: Fc1ccc(-c2c(-c3ccncc3)n(CCN3CCOCC3)c3cccnc23)cc1
- IC50 cell viability (PCB490-3): > 100 µM
- IC50 cell viability (PCB490-4): > 100 µM
- IC50 cell viability (PCB490-5): > 100 µM

Compound: CC(C)c1[nH]nc2c1N=C(c1ccccc1Cl)c1cc([N+](=O)[O-])ccc1N2
- IC50 cell viability (PCB490-3): > 100 µM
- IC50 cell viability (PCB490-4): > 100 µM
- IC50 cell viability (PCB490-5): > 100 µM

Compound: Cn1c(=O)c(Oc2ccc(F)cc2F)cc2cnc(NC(C)(C)CO)nc21
- IC50 cell viability (PCB490-3): > 100 µM
- IC50 cell viability (PCB490-4): > 100 µM
- IC50 cell viability (PCB490-5): > 100 µM

Compound: Nc1c(C(=O)c2ccc(CCCN3CCOCC3)cc2)cnn1-c1ccc(F)cc1
- IC50 cell viability (PCB490-3): > 100 µM
- IC50 cell viability (PCB490-4): > 100 µM
- IC50 cell viability (PCB490-5): > 100 µM

Compound: CS(=O)(=O)CCc1cccc(C(=O)c2cnn(-c3ccc(F)cc3)c2N)c1
- IC50 cell viability (PCB490-3): > 100 µM
- IC50 cell viability (PCB490-4): > 100 µM
- IC50 cell viability (PCB490-5): > 100 µM

Compound: CC(C)(O)CCc1cccc(C(=O)c2cnn(-c3ccc(F)cc3)c2N)c1
- IC50 cell viability (PCB490-3): > 100 µM
- IC50 cell viability (PCB490-4): > 100 µM
- IC50 cell viability (PCB490-5): > 100 µM

Compound: Cn1cc(C2=C(c3cn(C)c4c([N+](=O)[O-])cccc34)C(=O)NC2=O)c2ccccc21
- IC50 cell viability (PCB490-3): > 100 µM
- IC50 cell viability (PCB490-4): > 100 µM
- IC50 cell viability (PCB490-5): > 100 µM
